Assay results as given in patent publication US4383993A, “Nasal dosage forms containing natural female sex hormones” (priority 1981, dated 1983).
Entries after “also recorded” stand apart in the source; their conditions may differ.

Experiments:
[1] = bioavailability of 17 β-estradiol in rats via intravenous, nasal and intraduodenal/oral routes (TUE, E2, E1 in blood); assay type: in vivo, Sprague-Dawley male rats
Procedure: (§1) Sprague-Dawley male rats, each weighing about 270 grams, were used in the progesterone study. For nasal administration, the rats were anesthetized using sodium pentobarbital (50 mg/kg) and the drug was administered to the nasal cavity by means of a micropipet at dosage levels of 50 μg, 100 μg and 150 μg/rat of [4-^14 C]-progesterone (~8.5 μCi/rat) in 0.1 ml of isotonic saline containing 1-2% Tween 80 as a solubilizing agent, according to the procedure described by Hirai et al, the 98th Annual Meeting of Pharmaceutical Society of Japan, Okayama, April 1978, except that the end of the tube leading from the esophagus to the nasal cavity was closed and the drug was administered to the nostrils which were then closed with an adhesive agent. For oral (intraduodenal) administration, the rats were anesthetized and the abdomen of each rat was opened through a midline incision and a 50 μg/rat dose of the drug ([4-^14 C]-progesterone in 0.1 ml isotonic saline with 1-2% Tween 80) was injected directly through the duodenum. For intravenous administration, the rats were anesthetized and the drug was injected through the femoral vein at dosage levels of 50 μg, 100 μg and 150 μg/rat of [4-^14 C]-progesterone in 0.1 ml of isotonic saline containing 1-2% Tween 80. Blood was sampled periodically from the […] after IV and nasal administration, and from the tail vein after ID administration. Blood levels of progesterone were determined by thin layer chromotography.
Sprague-Dawley male rats, each weighing approximately 270 grams, were given dosages of 5 μg, 10 μg and 20 μg/rat of [6,7-^3 H] […] Blood samples were taken periodically as described in the progesterone study and assayed for estradiol (E2), estrone (E1) and total unconjugated estrogens (TUE).

[2] = bioavailability of progesterone in rats after intravenous, nasal and intraduodenal/oral administration; assay type: in vivo, Sprague-Dawley male rats
Procedure: as §1

[3] = by mouth; rapid metabolism in intestinal epithelium and liver; cited from earlier work

SMILES | absorption by the nasal mucosa ([1]; nasal) | nasal vs oral bioavailability of E2 ([1]; rat, in vivo) | nasal vs oral bioavailability of TUE ([1]; rat, in vivo) | bioavailability ([1]; rat, in vivo, E2 bioavailability relative to corresponding IV doses) | bioavailability ([1]; rat, in vivo, po, E2 AUC ratio vs. IV) | bioavailability ([1]; rat, in vivo, po, E2 bioavailability relative to corresponding IV doses) | nasal bioavailability vs oral bioavailability ([2]; 50 μg dosage level) | area under the curve as a function of dose ([2]; IV and nasal routes, 50, 100, 150 μg, FIG. 2) | area under the curve, intravenous vs nasal (two tailed t-test) ([2]; at each dose) | absorption from the nasal mucosa ([2]; nasal) | nasal bioavailability vs intravenous bioavailability ([2]; nasal vs intravenous) | nasal bioavailability vs oral bioavailability (in words) ([2]; nasal vs oral) | Tmax ([2]; rat, in vivo) | bioavailability ([2]; rat, in vivo, iv, AUC ratio Nasal/IV) | bioavailability ([2]; rat, in vivo, oral bioavailability relative to equivalent IV dose) | oral effectiveness [3]
C[C@]12CC[C@@H]3c4ccc(O)cc4CC[C@H]3[C@@H]1CC[C@@H]2O [17 β-estradiol, estra-1,3,5(10)-triene-3,17 β-diol] | rapidly absorbed by the nasal mucosa; also recorded: rapidly absorbed from the nasal mucosa into systemic blood without extensive intestinal or first pass metabolism | 13.23-21.74 times | 2.26-2.83 times | 50.5 to 83.9% | 3.8% | 3.1 to 5% |  |  |  |  |  |  |  |  |  | 
CC(=O)[C@H]1CC[C@H]2[C@@H]3CCC4=CC(=O)CC[C@]4(C)[C@H]3CC[C@]12C [progesterone, pregn-4-ene-3,20-dione] |  |  |  |  |  |  | 85.75 times | directly proportional to the dose administered | not significantly different, even at the 0.001 level | very rapidly absorbed from the nasal mucosa; also recorded: rapidly absorbed from the nasal mucosa into the systemic circulation without first pass metabolism; also recorded: rapidly absorbed from the nasal mucosa into systemic blood without extensive intestinal or first pass metabolism | equivalent | vastly superior | < 7 min | 103% | 1.2% | not effective by mouth
